The nature of data set [1]: Selectivity ratio of Kd for binding affinity to BRD4 BD2 (unknown origin) by MST assay to Kd for binding affinity to BRD4 BD1 (unknown origin) by MST assay.
A short description of data set [2]: Selectivity ratio of Kd for binding affinity to BRD4 BD2 (unknown origin) by ITC assay to Kd for binding affinity to BRD4 BD1 (unknown origin) by ITC assay. For orientation: ITC needs no label: the signal is the heat of the interaction.
Data set [3] has as its target T1, Bromodomain-containing protein 4 (Homo sapiens, UniProt O60885). Nature of the data set: Binding affinity to BRD4 BD1 (unknown origin) assessed as change in enthalpy by ITC method.
Data set [4] addresses Bromodomain testis-specific protein (Homo sapiens, UniProt Q58F21). Nature of the data set: Inhibition of BRDT BD2 (unknown origin) incubated for 15 mins by HTRF method.
Data set [5] is described as follows: Selectivity ratio of IC50 for inhibition of BRD4 BD2 (unknown origin) to IC50 for inhibition of BRD4 BD1 (unknown origin).
Data set [6] in a line: Selectivity ratio of IC50 for inhibition of BRD3 BD2 (unknown origin) to IC50 for inhibition of BRD3 BD1 (unknown origin).
The nature of data set [7]: Selectivity ratio of IC50 for inhibition of BRD2 BD2 (unknown origin) to IC50 for inhibition of BRD2 BD1 (unknown origin).
A short description of data set [8]: Selectivity ratio of IC50 for inhibition of BRDT BD2 (unknown origin) to IC50 for inhibition of BRDT BD1 (unknown origin).
Data set [9] in a line: Solubility in water by HPLC analysis. The data set is classed as physicochemical.
A short description of data set [10]: Half life in Sprague-Dawley rat at 5 mg/kg, iv measured upto 25 hrs by LC-MS/MS analysis. The data set is classed as ADME, organism-based. The settings on record: in vivo.
The nature of data set [11]: Mean residence time in Sprague-Dawley rat at 5 mg/kg, iv measured upto 25 hrs by LC-MS/MS analysis. Format: ADME, organism-based. The settings on record: in vivo.
Data set [12] in a line: Cmax in Sprague-Dawley rat at 25 mg/kg, ip measured upto 25 hrs by LC-MS/MS analysis. The data set is classed as ADME, organism-based. Particulars: in vivo.
Data set [13] is described as follows: Tmax in Sprague-Dawley rat at 25 mg/kg, ip measured upto 25 hrs by LC-MS/MS analysis. Format: ADME, organism-based. The settings on record: in vivo.
Data set [14] can be described thus: Half life in Sprague-Dawley rat at 25 mg/kg, ip measured upto 25 hrs by LC-MS/MS analysis. The settings on record: in vivo. The data set is classed as ADME, organism-based.
A short description of data set [15]: Oral bioavailability in Sprague-Dawley rat at 25 mg/kg measured upto 25 hrs by LC-MS/MS analysis. The data set is classed as ADME, organism-based. The settings on record: in vivo.
Data set [16] is described as follows: Cmax in C57BL/6 mouse blood at 5 mg/kg, iv measured upto 25 hrs by LC-MS/MS analysis. Format: ADME, organism-based.
The target of data set [17] is T1, Bromodomain-containing protein 4. Nature of the data set: Binding affinity to BRD4 BD2 (unknown origin) assessed as change in entropy by ITC method.

Values after ≈ are worked out from the molar mass of the structure shown.

A word on the IC50: it is the concentration at which inhibition is half-maximal. A higher IC50 goes with lower potency. A word on the solubility: it is the dissolved amount per volume that the medium holds. Read a low solubility as little dissolved substance. The term half-life denotes the time in which the quantity being followed falls by half. A high value points to slow loss. The MRT is the average time that molecules of a dose stay in the body. For orientation: Cmax means the peak of the concentration-time curve. What is called Tmax is the time at which the peak concentration occurs. As a reminder, the bioavailability is dose-corrected exposure relative to a reference, in per cent. Regarding `Cc1nn(CC2CC2)c(C)c1-c1cncc(-c2ccnc3nc[nH]c23)c1`, the Selectivity ratio was 60 in data set [1] and 38 in [2]. Also, in [3], the deltaH was -15.6 kcal/mol. Also, 3.04 µM corresponded to half-maximal inhibition in [4] (IC50). Further, the Ratio IC50 in data set [5] was 28; in data set [6], 11; in data set [7], 4; in data set [8], 0.6. The molecule also gave a solubility in [9] of 760 µg/mL (≈ 2210 µM). The values for the half-life in [10] and in data set [14] were 3.56 h and 3.53 h, respectively. In data set [11], this molecule returned an MRT of 4.46 h. The results for the Cmax in data set [12] and in data set [16] were 89.4 µM and 17.2 µM, respectively. Also, the Tmax in data set [13] stood at 1 h. In data set [15], this molecule registered a bioavailability of 22%. Further, the TdeltaS in data set [17] is -0.533 kcal/mol.

Values taken from ChEMBL document CHEMBL5528022, “Discovery of a brain-permeable bromodomain and extra terminal domain (BET) inhibitor with selectivity for BD1 for the treatment of multiple sclerosis” (Eur J Med Chem, 2024).
